*1 amine or outer side, *2 acyl side, *3 side chain or, on linkers, in order; H or OH if unused. Where a SMILES comes first, the peptide text is derived from it. Bridges are numbered along the chain shown (N, C = ends). [ ]: non-standard residue; d: D form. Nle(4-yne,6-yl) = O=C([C@H](CC#CC[*:3])N[*:1])[*:2]
Target: Bcl-2 protein having His tag on the C terminal side (Homo sapiens, UniProt P10415)
Assay: Binding ability to Bcl-2 by SPR (Surface Plasmon Resonance), dissociation constant
Settings: His-tagged Bcl-2 immobilized on Ni substrate, solid-phase synthesized peptide, KD from binding and dissociation rates
Description: Next, a crosslinked peptide having the amino acid sequence as shown in the above table was synthesized by using a Fmoc solid-phase method and its binding ability was evaluated by calculating a dissociation constant (KD) in accordance with an evaluation method using SPR (Surface Plasmon Resonance).
Described specifically, first, a solution containing NiCl2 was applied on a substrate to which Ni could be bound and then Bcl-2 protein having His tag on the C terminal side thereof was applied to immobilize the protein on the substrate. Then, a solution containing a solid-phase synthesized peptide was added successively while appropriately changing the concentration. During addition, a change in refractive index depending on the weight on the substrate was read and bond strength was evaluated based on the binding rate and dissociation rate of the peptide calculated.

Chain of Bcl-2 protein having His tag on the C terminal side (P10415 whole entry): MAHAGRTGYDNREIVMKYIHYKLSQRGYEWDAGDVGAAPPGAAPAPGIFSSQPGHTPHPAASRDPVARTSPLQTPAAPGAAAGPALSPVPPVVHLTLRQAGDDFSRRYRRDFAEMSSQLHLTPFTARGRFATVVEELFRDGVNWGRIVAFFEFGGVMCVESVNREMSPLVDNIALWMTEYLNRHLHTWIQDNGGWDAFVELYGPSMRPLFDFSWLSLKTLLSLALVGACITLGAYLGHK

Kd [nM] | SMILES
0.37 | CC[C@H](C)[C@@H]1NC(=O)[C@H]([C@@H](C)O)NC(=O)[C@@H](NC(=O)[C@H](Cc2c[nH]cn2)NC(=O)[C@@H]2CCCN2C(=O)[C@H](Cc2ccccc2)NC(C)=O)CC#CCSC[C@@H](C(=O)N[C@@H](CCCNC(=N)N)C(=O)N[C@@H](C)C(=O)N[C@@H](CC(=O)O)C(=O)N[C@@H](CO)C(=O)N[C@@H](Cc2ccc(O)cc2)C(=O)N[C@@H](CC(=O)O)C(=O)N[C@@H](CO)C(=O)N[C@@H](Cc2ccc(O)cc2)C(=O)N[C@H](C(=O)N[C@@H](CCCNC(=N)N)C(=O)N[C@@H](CC(C)C)C(=O)N[C@@H](C)C(=O)N[C@@H](C)C(=O)N[C@H](C(=O)N[C@@H](Cc2ccccc2)C(=O)N[C@@H](CC(C)C)C(N)=O)[C@@H](C)O)C(C)C)NC(=O)[C@H](C)NC1=O [A-1] (Ac-FPH[Nle(4-yne,6-yl)]TIACRADSYDSYVRLAATFL-NH2; thioether 4-8)
> 0.1 | CC(=O)N[C@@H](Cc1ccccc1)C(=O)N[C@@H](CC(C)C)C(=O)N[C@@H](CC(N)=O)C(=O)N[C@@H](CCCNC(=N)N)C(=O)N[C@@H](Cc1c[nH]cn1)C(=O)N[C@@H](CC(N)=O)C(=O)N[C@@H](CC(N)=O)C(=O)N[C@@H](C)C(=O)N[C@@H](Cc1ccc(O)cc1)C(=O)N[C@@H](Cc1ccc(O)cc1)C(=O)N[C@H](C(=O)N[C@H]1CC#CCSC[C@@H](C(=O)N[C@@H](CC(C)C)C(=O)NCC(=O)N[C@@H](CCCNC(=N)N)C(=O)N[C@@H](CC(C)C)C(=O)N[C@@H](Cc2ccc(O)cc2)C(=O)N[C@@H](CCCNC(=N)N)C(=O)N[C@@H](CC(C)C)C(=O)N[C@@H](CC(C)C)C(N)=O)NC(=O)[C@H](C)NC(=O)[C@H](Cc2ccc(O)cc2)NC(=O)CNC1=O)[C@@H](C)O [A-3] (Ac-FLNRHNNAYYT[Nle(4-yne,6-yl)]GYACLGRLYRLL-NH2; thioether 12-16)
> 0.1 | CC(=O)N[C@@H](Cc1ccccc1)C(=O)N[C@@H](Cc1ccccc1)C(=O)N[C@@H](CC(N)=O)C(=O)N[C@@H](CCCNC(=N)N)C(=O)N[C@@H](Cc1c[nH]cn1)C(=O)N[C@@H](CC(N)=O)C(=O)N[C@@H](CC(N)=O)C(=O)N[C@@H](C)C(=O)N[C@@H](Cc1ccc(O)cc1)C(=O)N[C@@H](Cc1ccc(O)cc1)C(=O)N[C@H](C(=O)N[C@H]1CC#CCSC[C@@H](C(=O)N[C@@H](CC(C)C)C(=O)NCC(=O)N[C@@H](CCCNC(=N)N)C(=O)N[C@@H](CC(C)C)C(=O)N[C@@H](Cc2ccc(O)cc2)C(=O)N[C@@H](CCCNC(=N)N)C(=O)N[C@@H](CC(C)C)C(=O)N[C@@H](CC(C)C)C(N)=O)NC(=O)[C@H](C)NC(=O)[C@H](Cc2ccc(O)cc2)NC(=O)CNC1=O)[C@@H](C)O [A-4] (Ac-FFNRHNNAYYT[Nle(4-yne,6-yl)]GYACLGRLYRLL-NH2; thioether 12-16)
0.17 | CC[C@H](C)[C@H](NC(=O)[C@H](Cc1c[nH]cn1)NC(=O)[C@H](CCCNC(=N)N)NC(=O)[C@H](CO)NC(=O)[C@H](C)NC(=O)[C@H](CC(=O)O)NC(=O)[C@H](Cc1ccc(O)cc1)NC(=O)[C@H](CO)NC(=O)[C@H](CC(=O)O)NC(=O)[C@H](C)NC(=O)[C@H](CC(C)C)NC(=O)[C@@H]1CSCC#CC[C@H](NC(=O)[C@@H](NC(=O)[C@@H](NC(=O)[C@H](Cc2ccccc2)NC(C)=O)[C@@H](C)CC)[C@@H](C)CC)C(=O)N[C@@H](CCCNC(=N)N)C(=O)N[C@@H](Cc2ccccc2)C(=O)N[C@@H](CO)C(=O)N1)C(=O)N[C@@H](Cc1ccccc1)C(N)=O [A-5] (Ac-FII[Nle(4-yne,6-yl)]RFSCLADSYDASRHIF-NH2; thioether 4-8)
